Counter-ions that a name gives are not always drawn.
How the values were obtained:
[1] = human, in vivo
Procedure: (§1) NRTI concentrations were measured by a validated method on ultra-performance liquid chromatography (ACQUITY, Waters) in plasma samples collected at study baseline. Briefly, 200 μL of plasma was subjected to solid phase extraction (MCX cartridge, Waters) and the elutants were dried under nitrogen stream before being re-constituted in 50 μL of water. The NRTI drugs were separated using a C18 BEH column (1.7 μm, 2.1 mm x 100 mm, Waters). For each of the four NRTIs, population PK models were determined using nonlinear mixed effects (NONMEM v.7.3) using the $PRIOR subroutine to stabilise the models and aid partition of inter-individual and residual variabilities. The impact of covariates on antiretroviral apparent oral clearance was evaluated. […] Model fit was assessed by statistical and graphical methods. A decrease in the minimal objective function value (-2*log likelihood) of at least 3.84 units (corresponding to a p-value<0.05) was required to accept a model with an extra parameter. Once significant covariates were incorporated, a backwards elimination process was performed and biologically plausible covariates generating an increase in the objective function value of at least 10.83 (i.e. p<0.001) units were retained.
Continuous variables, including PK parameters and cognitive z-scores, were summarized using the median and the interquartile range (IQR); categorical variables were described using frequencies and percentages. Associations between NRTI PK parameters and cognitive z-scores were assessed using a series of rank regression models, one for each combination of cognitive domain/global score, NRTI and PK parameter (7x4x3 models). In each model, the cognitive score was considered as the dependent variable and the NRTI PK parameter as an independent variable in addition to the following confounders, selected a priori: age, gender, ethnicity, education, recreational drug use, alcohol consumption, glomerular filtration rate (estimated using the Chronic Kidney Disease Epidemiology Collaboration equation [15]), depressive symptoms (assessed via the Patient Health Questionnaire-9 [16]) use of ritonavir/cobicistat boosted protease inhibitor and use of efavirenz. […] Multivariable analyses were conducted as follows, in order to investigate associations of each PK parameter for one NRTI, independently of the concentration of the other NRTI in the regimen. […] All analyses were performed using the statistical software SAS v9.4 with p-values <0.05 considered as statistically significant.

[2] = Plasma NRTI concentrations and population PK parameters (POPPY study)
Procedure: as §1, with “methods.” for “methods. A decrease in the minimal objective function value (-2*log likelihood) of at least 3.84 units (corresponding to a p-value<0.05) was required to accept a model with an extra parameter. Once significant covariates were incorporated, a backwards elimination process was performed and biologically plausible covariates generating an increase in the objective function value of at least 10.83 (i.e. p<0.001) units were retained.”

[3] = test system: cognitive function; conditions: cited from earlier work
[4] = set-up: method as in PMID 16390539; conditions: cited from earlier work
[5] = PWH on cART, median (IQR), from population PK model

| Structure (SMILES) | Eta^2, Age vs AUC0-24 [1] | Eta^2, Age vs Cmax [1] | Eta^2, Age vs Ctrough [1] | Eta^2, Alcohol consumption vs AUC0-24 [1] | Eta^2, Alcohol consumption vs Cmax [1] | Eta^2, Alcohol consumption vs Ctrough [1] | Eta^2, BMI vs AUC0-24 [1] | Eta^2, BMI vs Cmax [1] | Eta^2, BMI vs Ctrough [1] | Eta^2, Education vs AUC0-24 [1] | Eta^2, Education vs Ctrough [1] | Eta^2, Ethnicity vs Ctrough [1] | Eta^2, Gender vs Ctrough [1] | Eta^2, PHQ-9 score vs Ctrough [1] | Eta^2, Recreational drug use vs Ctrough [1] | Eta^2, Use of Efavirenz vs Ctrough [1] | Eta^2, Use of boosted PI vs Ctrough [1] | Eta^2, eGFR vs Ctrough [1] | Ctrough [2, 5] | AUC(0-t) ([2]; human, po) [ng·h/mL] | also measured |
| --- | --- | --- | --- | --- | --- | --- | --- | --- | --- | --- | --- | --- | --- | --- | --- | --- | --- | --- | --- | --- | --- |
| Nc1nc(NC2CC2)c2ncn([C@H]3C=C[C@@H](CO)C3)c2n1 [ABC, abacavir] | 0.005 | 0.017 | 0.069 | 0.002 | 0.000 | 0.008 | 0.010 | 0.014 | 0.000 | 0.071 | 0.114 | 0.002 | 0.001 | 0.000 | 0.010 | 0.040 | 0.059 | 0.089 | ABC: 2.6 (1.4, 4.6) μg/l | 12700 | Eta^2, Education vs Cmax [1]: 0.033; Eta^2, Ethnicity vs AUC0-24 [1]: 0.011; Eta^2, Ethnicity vs Cmax [1]: 0.025; Eta^2, Gender vs AUC0-24 [1]: 0.036; Eta^2, Gender vs Cmax [1]: 0.034; Eta^2, PHQ-9 score vs AUC0-24 [1]: 0.000; Eta^2, PHQ-9 score vs Cmax [1]: 0.001; Eta^2, Recreational drug use vs AUC0-24 [1]: 0.027; Eta^2, Recreational drug use vs Cmax [1]: 0.009; Eta^2, Use of Efavirenz vs AUC0-24 [1]: 0.016; Eta^2, Use of Efavirenz vs Cmax [1]: 0.000; Eta^2, Use of boosted PI vs AUC0-24 [1]: 0.053; Eta^2, Use of boosted PI vs Cmax [1]: 0.008; Eta^2, eGFR vs AUC0-24 [1]: 0.039; Eta^2, eGFR vs Cmax [1]: 0.000; Cmax ([2]; human, po): 4200 ng/mL; effect on cognitive performance ([3]; cohort study): beneficial effect; cognitive function after ABC initiation ([3]; randomized controlled trial, PWH with HIV-associated dementia): no improvement of cognitive function |
| CC(C)OC(=O)OCOP(=O)(CO[C@H](C)Cn1cnc2c(N)ncnc21)OCOC(=O)OC(C)C [TDF, tenofovir disoproxil fumarate] | 0.070 | 0.028 | 0.075 | 0.002 | 0.005 | 0.001 | 0.095 | 0.271 | 0.013 | 0.016 | 0.011 | 0.011 | 0.001 | 0.002 | 0.012 | 0.005 | 0.004 | 0.135 |  |  | Eta^2, Education vs Cmax [1]: 0.020; Eta^2, Ethnicity vs AUC0-24 [1]: 0.007; Eta^2, Ethnicity vs Cmax [1]: 0.000; Eta^2, Gender vs AUC0-24 [1]: 0.009; Eta^2, Gender vs Cmax [1]: 0.033; Eta^2, PHQ-9 score vs AUC0-24 [1]: 0.001; Eta^2, PHQ-9 score vs Cmax [1]: 0.001; Eta^2, Recreational drug use vs AUC0-24 [1]: 0.007; Eta^2, Recreational drug use vs Cmax [1]: 0.000; Eta^2, Use of Efavirenz vs AUC0-24 [1]: 0.003; Eta^2, Use of Efavirenz vs Cmax [1]: 0.000; Eta^2, Use of boosted PI vs AUC0-24 [1]: 0.004; Eta^2, Use of boosted PI vs Cmax [1]: 0.002; Eta^2, eGFR vs AUC0-24 [1]: 0.124; Eta^2, eGFR vs Cmax [1]: 0.042; CNS penetration [4]: low CNS penetration |
| C[C@H](Cn1cnc2c(N)ncnc21)OCP(=O)(O)O [TFV, tenofovir] |  |  |  |  |  |  |  |  |  |  |  |  |  |  |  |  |  |  | TFV: 53.0 (44.0, 67.0) μg/l | 2700 | Cmax [2, 5]: TFV: 0.3 (0.2, 0.3) mg/l |
| Nc1ccn([C@@H]2CS[C@H](CO)O2)c(=O)n1 [3TC, lamivudine] |  |  | 0.101 |  |  | 0.005 |  |  | 0.002 |  | 0.084 | 0.021 | 0.002 | 0.015 | 0.014 | 0.041 | 0.039 | 0.230 | 3TC: 12.4 (3.0, 126.7) μg/l | 9900 | Cmax ([2]; human, po): 2400 ng/mL |
| Nc1nc(=O)n([C@@H]2CS[C@H](CO)O2)cc1F [FTC, emtricitabine] | 0.157 | 0.189 | 0.099 | 0.000 | 0.000 | 0.001 | 0.000 | 0.000 | 0.000 | 0.013 | 0.013 | 0.005 | 0.000 | 0.004 | 0.025 | 0.005 | 0.005 | 0.083 | FTC: 75.0 (59.0, 99.0) μg/l | 10400 | Eta^2, Education vs Cmax [1]: 0.011; Eta^2, Ethnicity vs AUC0-24 [1]: 0.010; Eta^2, Ethnicity vs Cmax [1]: 0.014; Eta^2, Gender vs AUC0-24 [1]: 0.000; Eta^2, Gender vs Cmax [1]: 0.000; Eta^2, PHQ-9 score vs AUC0-24 [1]: 0.004; Eta^2, PHQ-9 score vs Cmax [1]: 0.002; Eta^2, Recreational drug use vs AUC0-24 [1]: 0.030; Eta^2, Recreational drug use vs Cmax [1]: 0.033; Eta^2, Use of Efavirenz vs AUC0-24 [1]: 0.008; Eta^2, Use of Efavirenz vs Cmax [1]: 0.008; Eta^2, Use of boosted PI vs AUC0-24 [1]: 0.008; Eta^2, Use of boosted PI vs Cmax [1]: 0.008; Eta^2, eGFR vs Cmax [1]: 0.172; Cmax ([2]; human, po): 1100 ng/mL |
| CC(C)OC(=O)[C@H](C)N[P@](=O)(CO[C@H](C)Cn1cnc2c(N)ncnc21)Oc1ccccc1 [TAF, tenofovir alafenamide] |  |  |  |  |  |  |  |  |  |  |  |  |  |  |  |  |  |  |  |  | cognitive performances on switching from TDF to TAF ([3]; PWH switching from TDF to TAF): no changes in cognitive performances |

From publication PMC8294567, “Associations between plasma nucleoside reverse transcriptase inhibitors concentrations and cognitive function in people with HIV” (PLoS ONE, 2021)
